Assay results from article PMC7531004, “Discovery of gramicidin A analogues with altered activities by multidimensional screening of a one-bead-one-compound library” (Nature Communications, 2020).
Where a SMILES comes first, the peptide text is derived from it. [ ]: non-standard residue; d: D form. The star is where a group is joined. NHCH2CH2OH = OCCN*; For = O=C*

Key:
[1] = test system: P388 mouse leukemia cells; conditions: 92 h
Summary of the method: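 First, library peptide stocks are diluted 250-fold in RPMI1640 with 10% heat-inactivated FBS. Next, they are mixed with P388 cells to give 1 × 10^4 cells/mL and incubated 92 h at 37 °C, 5% CO2. Finally, viability (%) is scored by WST-1 absorbance at 415 nm.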

[2] = test system: Streptococcus pyogenes SSI-9; test: Antibacterial activity assay of bead-derived peptides (three concentrations); type: cell-based; set-up: key: +++: inhibition by the 640-fold diluted peptide solution; ++: inhibition by the 160-fold diluted solution; +: inhibition by the 40-fold diluted solution; -: no inhibition; conditions: S. pyogenes, bead-derived peptide solution, three concentrations
Summary of the method: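 Bead-derived library peptide stocks in DMSO were tested undiluted and after 4- and 16-fold DMSO dilution against S. pyogenes SSI-9 (2 × 10^5 CFU/well) in cation-adjusted Mueller Hinton Broth with 5% laked horse blood. After 18 h at 37 °C, wells were scored for precipitation of grown cells.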

[3] = H+/Na+ transport assay of bead-derived peptides (one-point); type: biochemical; set-up: key: relative activity; mean of two control wells = 1.00; conditions: bead-derived peptide solution, EYPC/EYPG LUVs;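 also: relative to parent gramicidin A activity set to 1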
Summary of the method: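 Pyranine (1.0 mM)-loaded LUVs containing egg yolk phosphatidylglycerol were prepared by film hydration, sonication and extrusion, then mixed with diluted bead-derived peptide in 96-well format and vortexed 30 min at room temperature. Fluorescence was normalized between untreated LUVs (0%) and Triton X-100 lysis (100%).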

Compound	cell viability/% [1]	antibacterial activity [2]	H+/Na+ transport activity normalized against the value of 1 (1.00) [3]
CNC(=O)C[C@@H](NC(=O)[C@@H](NC(=O)[C@H](NC(=O)[C@H](C)NC(=O)[C@@H](CC(C)C)NC(=O)[C@H](C)NC(=O)CNC(=O)[C@@H](NC=O)C(C)C)C(C)C)C(C)C)C(=O)N[C@@H](Cc1c[nH]c2ccccc12)C(=O)N[C@H](CC(C)C)C(=O)N[C@@H](Cc1c[nH]c2ccccc12)C(=O)N[C@@H](C(=O)N[C@@H](Cc1c[nH]c2ccccc12)C(=O)N[C@H](CC(C)C)C(=O)N[C@@H](Cc1c[nH]c2ccccc12)C(=O)NCCO)C(C)C [compound 2881] (For-VGA[dL]A[dV]V[dD](NHMe)W[dL]W[dV]W[dL]W-NHCH2CH2OH)	100.0%	-	1.16
CC(C)C[C@@H](NC(=O)[C@H](C)NC(=O)CNC(=O)[C@@H](NC=O)C(C)C)C(=O)N[C@@H](C)C(=O)N[C@H](CC(C)C)C(=O)N[C@H](C(=O)N[C@@H](C(=O)N[C@@H](Cc1c[nH]c2ccccc12)C(=O)N[C@@H](C(=O)N[C@@H](Cc1c[nH]c2ccccc12)C(=O)N[C@@H](C(=O)N[C@@H](Cc1c[nH]c2ccccc12)C(=O)N[C@@H](C(=O)N[C@@H](Cc1c[nH]c2ccccc12)C(=O)NCCO)C(C)C)[C@H](C)O)C(C)C)C(C)C)C(C)C [compound 2887] (For-VGA[dL]A[dL]V[dV]W[dV]W[dT]W[dV]W-NHCH2CH2OH)	99.0%	-	1.01
CNC(=O)C[C@@H](NC(=O)[C@@H](NC(=O)[C@H](NC(=O)[C@H](C)NC(=O)[C@H](NC(=O)[C@H](C)NC(=O)CNC(=O)[C@@H](NC=O)C(C)C)C(C)C)C(C)C)C(C)C)C(=O)N[C@@H](Cc1c[nH]c2ccccc12)C(=O)N[C@@H](C(=O)N[C@@H](Cc1c[nH]c2ccccc12)C(=O)N[C@H](CC(C)C)C(=O)N[C@@H](Cc1c[nH]c2ccccc12)C(=O)N[C@H](CC(C)C)C(=O)N[C@@H](Cc1c[nH]c2ccccc12)C(=O)NCCO)C(C)C [compound 2898] (For-VGA[dV]A[dV]V[dD](NHMe)W[dV]W[dL]W[dL]W-NHCH2CH2OH)	100.0%	-	1.13
CNC(=O)C[C@@H](NC(=O)[C@@H](NC(=O)[C@H](NC(=O)[C@H](C)NC(=O)[C@@H](CC(C)C)NC(=O)[C@H](C)NC(=O)CNC(=O)[C@@H](NC=O)C(C)C)C(C)C)C(C)C)C(=O)N[C@@H](Cc1c[nH]c2ccccc12)C(=O)N[C@H](CC(C)C)C(=O)N[C@@H](Cc1c[nH]c2ccccc12)C(=O)N[C@@H](C(=O)N[C@@H](Cc1c[nH]c2ccccc12)C(=O)N[C@@H](C(=O)N[C@@H](Cc1c[nH]c2ccccc12)C(=O)NCCO)C(C)C)C(C)C [compound 2932] (For-VGA[dL]A[dV]V[dD](NHMe)W[dL]W[dV]W[dV]W-NHCH2CH2OH)	87.5%	-	1.27
CNC(=O)C[C@@H](NC(=O)[C@@H](NC(=O)[C@@H](CC(C)C)NC(=O)[C@H](C)NC(=O)[C@@H](CC(C)C)NC(=O)[C@H](C)NC(=O)CNC(=O)[C@@H](NC=O)C(C)C)C(C)C)C(=O)N[C@@H](Cc1c[nH]c2ccccc12)C(=O)N[C@@H](C(=O)N[C@@H](Cc1c[nH]c2ccccc12)C(=O)N[C@@H](C(=O)N[C@@H](Cc1c[nH]c2ccccc12)C(=O)N[C@H](CC(C)C)C(=O)N[C@@H](Cc1c[nH]c2ccccc12)C(=O)NCCO)C(C)C)C(C)C [compound 2951] (For-VGA[dL]A[dL]V[dD](NHMe)W[dV]W[dV]W[dL]W-NHCH2CH2OH)	93.1%	-	1.10
CNC(=O)C[C@@H](NC(=O)[C@@H](NC(=O)[C@@H](CC(C)C)NC(=O)[C@H](C)NC(=O)[C@@H](CC(C)C)NC(=O)[C@H](C)NC(=O)CNC(=O)[C@@H](NC=O)C(C)C)C(C)C)C(=O)N[C@@H](Cc1c[nH]c2ccccc12)C(=O)N[C@H](CC(C)C)C(=O)N[C@@H](Cc1c[nH]c2ccccc12)C(=O)N[C@@H](C(=O)N[C@@H](Cc1c[nH]c2ccccc12)C(=O)N[C@H](CC(C)C)C(=O)N[C@@H](Cc1c[nH]c2ccccc12)C(=O)NCCO)C(C)C [compound 2953] (For-VGA[dL]A[dL]V[dD](NHMe)W[dL]W[dV]W[dL]W-NHCH2CH2OH)	100.0%	-	1.20
CNC(=O)C[C@@H](NC(=O)[C@@H](NC(=O)[C@@H](CC(C)C)NC(=O)[C@H](C)NC(=O)[C@@H](CC(C)C)NC(=O)[C@H](C)NC(=O)CNC(=O)[C@@H](NC=O)C(C)C)C(C)C)C(=O)N[C@@H](Cc1c[nH]c2ccccc12)C(=O)N[C@H](CC(C)C)C(=O)N[C@@H](Cc1c[nH]c2ccccc12)C(=O)N[C@H](CC(C)C)C(=O)N[C@@H](Cc1c[nH]c2ccccc12)C(=O)N[C@@H](C(=O)N[C@@H](Cc1c[nH]c2ccccc12)C(=O)NCCO)[C@H](C)O [compound 2967] (For-VGA[dL]A[dL]V[dD](NHMe)W[dL]W[dL]W[dT]W-NHCH2CH2OH)	100.0%	-	1.04
CC(C)C[C@@H](NC(=O)[C@H](Cc1c[nH]c2ccccc12)NC(=O)[C@H](NC(=O)[C@H](Cc1c[nH]c2ccccc12)NC(=O)[C@@H](CC(C)C)NC(=O)[C@H](Cc1c[nH]c2ccccc12)NC(=O)[C@H](NC(=O)[C@@H](NC(=O)[C@H](NC(=O)[C@H](C)NC(=O)[C@H](NC(=O)[C@H](C)NC(=O)CNC(=O)[C@@H](NC=O)C(C)C)C(C)C)C(C)C)C(C)C)C(C)C)C(C)C)C(=O)N[C@@H](Cc1c[nH]c2ccccc12)C(=O)NCCO [compound 2994] (For-VGA[dV]A[dV]V[dV]W[dL]W[dV]W[dL]W-NHCH2CH2OH)	6.3%	++	1.14
CC(C)C[C@@H](NC(=O)[C@H](Cc1c[nH]c2ccccc12)NC(=O)[C@H](NC(=O)[C@H](Cc1c[nH]c2ccccc12)NC(=O)[C@H](NC(=O)[C@H](Cc1c[nH]c2ccccc12)NC(=O)[C@@H](CC(C)C)NC(=O)[C@@H](NC(=O)[C@H](NC(=O)[C@H](C)NC(=O)[C@H](NC(=O)[C@H](C)NC(=O)CNC(=O)[C@@H](NC=O)C(C)C)C(C)C)C(C)C)C(C)C)C(C)C)C(C)C)C(=O)N[C@@H](Cc1c[nH]c2ccccc12)C(=O)NCCO [compound 3111] (For-VGA[dV]A[dV]V[dL]W[dV]W[dV]W[dL]W-NHCH2CH2OH)	8.2%	-	1.12
CC(C)C[C@@H](NC(=O)[C@H](C)NC(=O)CNC(=O)[C@@H](NC=O)C(C)C)C(=O)N[C@@H](C)C(=O)N[C@@H](C(=O)N[C@H](C(=O)N[C@@H](C(=O)N[C@@H](Cc1c[nH]c2ccccc12)C(=O)N[C@@H](C(=O)N[C@@H](Cc1c[nH]c2ccccc12)C(=O)N[C@H](CC(C)C)C(=O)N[C@@H](Cc1c[nH]c2ccccc12)C(=O)N[C@H](CC(C)C)C(=O)N[C@@H](Cc1c[nH]c2ccccc12)C(=O)NCCO)C(C)C)C(C)C)C(C)C)C(C)C [compound 3124] (For-VGA[dL]A[dV]V[dV]W[dV]W[dL]W[dL]W-NHCH2CH2OH)	0.0%	++	1.26
